Source: patent publication US8765779B2, “Tricyclic derivatives and their pharmaceutical use and compositions” (Cephalon, Inc., priority 2009, dated 2014)
Structures can show the parent of a compound that is named as a salt.

These molecules were tested against T1, human 5-HT6 receptor (Homo sapiens, UniProt P50406) (assay: Human 5-HT6 Receptor Binding Assay ([3H]LSD displacement, scintillation beads)). Conditions: membranes of CHO-K1 cells with recombinant human 5-HT6, 4 nM [3H]LSD; Table 1, class symbols; read-out: h5-HT6 (Ki).
T1 construct: host or cells: CHO-K1 cells, stably transfected; membranes prepared in house
T1 sequence (P50406 whole entry): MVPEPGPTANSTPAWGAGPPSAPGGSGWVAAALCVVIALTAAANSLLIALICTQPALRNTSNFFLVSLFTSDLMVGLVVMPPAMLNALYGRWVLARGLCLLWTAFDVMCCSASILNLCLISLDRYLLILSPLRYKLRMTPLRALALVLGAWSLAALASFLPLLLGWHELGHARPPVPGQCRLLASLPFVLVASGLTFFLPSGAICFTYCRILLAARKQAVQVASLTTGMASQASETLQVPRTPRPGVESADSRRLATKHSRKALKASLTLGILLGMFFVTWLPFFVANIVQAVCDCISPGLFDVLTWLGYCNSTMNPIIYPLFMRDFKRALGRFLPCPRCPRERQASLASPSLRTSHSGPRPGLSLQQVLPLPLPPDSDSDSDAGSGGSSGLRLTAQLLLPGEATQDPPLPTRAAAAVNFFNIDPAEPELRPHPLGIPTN

`CC12CCNCC1Oc1ccc(OS(=O)(=O)Cc3ccccc3F)cc12` (stereo not shown) [Example 786] and `CC(C)Oc1ccccc1S(=O)(=O)c1ccc2c(c1)OC1CNCCC21` (stereo not shown) [Example 419] cannot be ordered by Ki: less than 0.5 µM for the first, less than 0.5 µM for the second.

Going from `COc1ccc(S(=O)(=O)c2ccc3c(c2)OC2CNCCC32)cc1OC` (stereo not shown) [Example 115] to `CC12CCNCC1Oc1ccc(OS(=O)(=O)c3csc4ccccc34)cc12` (stereo not shown) [Example 771], the Ki falls from greater than 1 µM to less than 0.5 µM.

Compared with “7-[(3,5-Difluorophenyl)sulfonyl]-2′,3,3′,4,4a,5′,6′,9a-octahydro-2H-spiro[1-benzofuro[2,3-c]pyridine-1,4′-pyran]hydrochloride [Example 623]”, `O=S(=O)(c1ccc(Cl)c(Cl)c1)c1cccc2c1OC1CNCCC21` (stereo not shown) [Example 186] is lower in Ki: greater than 1 µM for the first, less than 0.5 µM for the second.

`O=S(=O)(Oc1ccc2c(c1)OC1CNCCC21)c1ccccc1C(F)(F)F` (stereo not shown) [Example 674] and `CC1(C)NCCc2c1oc1cc(S(=O)(=O)c3cncc(Cl)c3)ccc21` [Example 376] cannot be ordered by Ki: less than 0.5 µM for the first, less than 0.5 µM for the second.

Going from `CC12CCNCC1Oc1ccc(OS(=O)(=O)c3ccc(Cl)cc3)cc12` (stereo not shown) [Example 757] to `Cc1ccc(C)c(S(=O)(=O)Nc2ccc3c(c2)C2CCNCC2O3)c1` (stereo not shown) [Example 820, N-(1,2,3,4,4a,9a-hexahydro[1]benzofuro[2,3-c]pyridin-6-yl)-2,5-dimethylbenzenesulfonamide], the Ki falls from greater than 1 µM to less than 0.5 µM.

`Cc1cccc(S(=O)(=O)Oc2ccc3c(c2)C2CCNCC2O3)c1` (stereo not shown) [Example 699] and `O=S(=O)(c1cccc(OCCCO)c1)c1ccc2c(c1)OC1CNCCC21` (stereo not shown) [Example 568] cannot be ordered by Ki: less than 0.5 µM for the first, less than 0.5 µM for the second.

`COc1cccc(S(=O)(=O)c2ccc3c4c(oc3c2)C(C)(C)NCC4)c1` [Example 16, 7-[(3-methoxyphenyl)sulfonyl]-1,1-dimethyl-1,2,3,4-tetrahydro[1]benzofuro[2,3-c]pyridine] and `O=S(=O)(c1ccc(F)c(F)c1)c1ccc2oc3c(c2c1)CCNC3` [Example 240] cannot be ordered by Ki: less than 0.5 µM for the first, less than 0.5 µM for the second.

Going from `O=S(=O)(Oc1ccc2c(c1)OC1CN(Cc3ccccc3)CCC21)c1ccc(Cl)cc1` (stereo not shown) [Example 803] to `O=S(=O)(c1cccc(F)c1)c1ccc2c3c(oc2c1)C1(CCOCC1)NCC3` [Example 43, 7-[(3-fluorophenyl)sulfonyl]-2′,3,3′,4,5′,6′-hexahydro-2H-spiro[1-benzofuro[2,3-c]pyridine-1,4′-pyran]], the Ki falls from greater than 1 µM to less than 0.5 µM. The second binds more tightly here.

First: O=S(=O)(Nc1cccc(F)c1)c1ccc2c(c1)C1CCNCC1O2 (stereo not shown) [Example 846]
Second: O=S(=O)(c1cccc(F)c1)c1ccc2c3c(oc2c1)C1(CCCC1)NCC3 [Example 28, 7-[(3-fluorophenyl)sulfonyl]-3,4-dihydro-2H-spiro[1-benzofuro[2,3-c]pyridine-1,1′-cyclopentane]]
The Ki of the first is higher: greater than 1 µM for the first, less than 0.5 µM for the second. The second binds more tightly here.

First: O=S(=O)(c1ccccc1)c1ccc2c3c(oc2c1)C1(CCCOC1)NCC3 (single isomer, unassigned) [Example 543, 7-(Phenylsulfonyl)-3,4,5′,6′-tetrahydro-2H,4′H-spiro[1-benzofuro[2,3-c]pyridine-1,3′-pyran]hydrochloride]
Second: COc1ccc(S(=O)(=O)c2ccc3c(c2)OC2CNCCC32C)cc1 (racemic) [Example 5, 7-[(4-methoxyphenyl)sulfonyl]-4a-methyl-1,2,3,4,4a,9a-hexahydro[1]benzofuro[2,3-c]pyridine]
The Ki of the first is lower: less than 0.5 µM for the first, 0.5 to 1 µM for the second.

First: O=S(=O)(c1ccc(Cl)c(Cl)c1)c1ccc2c(c1)C1CCNCC1O2 (stereo not shown) [Example 172]
Second: CC12CCNCC1Oc1cc(S(=O)(=O)c3ncccn3)ccc12 (racemic) [Example 9, 4a-methyl-7-(pyrimidin-2-ylsulfonyl)-1,2,3,4,4a,9a-hexahydro[1]benzofuro[2,3-c]pyridine]
The Ki of the first is lower: less than 0.5 µM for the first, greater than 1 µM for the second. The first binds more tightly here.

First: O=S(=O)(Oc1ccc2c(c1)C1CCNCC1O2)c1ccc(-n2cccn2)cc1 (stereo not shown) [Example 733]
Second: O=S(=O)(c1ccc(F)c(F)c1)c1ccc2c(c1)OC1CNCCC21 (stereo not shown) [Example 128]
The Ki of the first is higher: 0.5 to 1 µM for the first, less than 0.5 µM for the second. The second binds more tightly here.

Compared with `Cc1c(OCc2cccnc2)cccc1S(=O)(=O)c1ccc2c(c1)OC1CNCCC21` (stereo not shown) [Example 566], `O=S(=O)(Cc1ccccc1)Oc1ccc2c(c1)C1CCNCC1O2` (stereo not shown) [Example 697, 1,2,3,4,4a,9a-hexahydro[1]benzofuro[2,3-c]pyridin-6-yl phenylmethanesulfonate] is higher in Ki: less than 0.5 µM for the first, greater than 1 µM for the second.

`C#CCOc1cccc(S(=O)(=O)c2ccc3c(c2)OC2CNCCC32)c1` (stereo not shown) [Example 549] and `CC(C)N1CCC2c3ccc(S(=O)(=O)c4ccccc4)cc3OC2C1` (stereo not shown) [Example 608, 7-(phenylsulfonyl)-2-(propan-2-yl)-1,2,3,4,4a,9a-hexahydro[1]benzofuro[2,3-c]pyridine] cannot be ordered by Ki: less than 0.5 µM for the first, less than 0.5 µM for the second.

`CC(=O)NCC1NCCc2c1oc1cc(S(=O)(=O)c3cccc(Cl)c3)ccc21` (racemic) [Example 539, N-({7-[(3-chlorophenyl)sulfonyl]-1,2,3,4-tetrahydro[1]benzofuro[2,3-c]pyridin-1-yl}methyl)acetamide] and `CC(=O)Nc1ccc(S(=O)(=O)c2ccc3c(c2)OC2CNCCC32)cc1` (stereo not shown) [Example 140] cannot be ordered by Ki: less than 0.5 µM for the first, less than 0.5 µM for the second.

Compared with `Cc1ccc(S(=O)(=O)Oc2ccc3c(c2)C2CCNCC2O3)cc1C` (stereo not shown) [Example 706], `O=S(=O)(Oc1ccc2c(c1)OC1CNCCC21)c1ccc(Oc2ccccc2)nc1` (stereo not shown) [Example 685] is higher in Ki: less than 0.5 µM for the first, greater than 1 µM for the second.

Going from `CC12CCNCC1Oc1ccc(OS(=O)(=O)Cc3ccc(F)cc3F)cc12` (stereo not shown) [Example 787] to `COc1cc(OC2CCCC2)cc(S(=O)(=O)c2ccc3c(c2)OC2CNCCC32)c1` (stereo not shown) [Example 586], the Ki falls from greater than 1 µM to less than 0.5 µM.

First: CC(C)C1NCCc2c1oc1cc(S(=O)(=O)c3cccc(F)c3)ccc21 (stereo not shown) [Example 495]
Second: CC(=O)N1CCC2c3cc(NS(=O)(=O)c4c(Cl)nc5sccn45)ccc3OC2C1 (stereo not shown) [Example 816]
The Ki of the first is lower: less than 0.5 µM for the first, 0.5 to 1 µM for the second. The first binds more tightly here.

Compared with `O=S(=O)(c1cccc(C(F)(F)F)c1)c1ccc2c(c1)OC1CNCCC21` (stereo not shown) [Example 126], `Cc1ccnc(S(=O)(=O)c2ccc3c(c2)OC2CNCCC32C)n1` (racemic) [Example 7, 4a-methyl-7-[(4-methylpyrimidin-2-yl)sulfonyl]-1,2,3,4,4a,9a-hexahydro[1]benzofuro[2,3-c]pyridine] is higher in Ki: less than 0.5 µM for the first, greater than 1 µM for the second.

First: [O-][S+](c1ccc2oc3c(c2c1)CCNC3)c1cccnc1OCC(F)(F)F (stereo not shown) [Example 447]
Second: O=S(=O)(c1ccc2c(c1)OC1CNCCC21)c1cccc2c1CCO2 (stereo not shown) [Example 405]
The Ki of the first is higher: greater than 1 µM for the first, 0.5 to 1 µM for the second. The second binds more tightly here.

First: O=S(=O)(Nc1ccccc1Cl)c1ccc2c(c1)C1CCNCC1O2 (stereo not shown) [Example 840]
Second: COc1cccc(COc2cccc(S(=O)(=O)c3ccc4c(c3)OC3CNCCC43)c2)c1 (stereo not shown) [Example 575]
The Ki of the first is higher: greater than 1 µM for the first, less than 0.5 µM for the second.

`O=S(=O)(c1cccc(Cl)c1)c1ccc2c3c(oc2c1)CN(CCCO)CC3` [Example 601] and `O=S(=O)(c1cccc(F)c1)c1ccc2oc3c(c2c1)CCN1CCC31` (stereo not shown) [Example 619] cannot be ordered by Ki: less than 0.5 µM for the first, less than 0.5 µM for the second.

`O=S(=O)(Nc1ccc2c(c1)C1CCNCC1O2)c1cccc(Cl)c1Cl` (stereo not shown) [Example 829] and `O=S(=O)(c1ccccc1)c1ccc2c3c(oc2c1)C1(CCOCC1)NCC3` [Example 296] cannot be ordered by Ki: less than 0.5 µM for the first, less than 0.5 µM for the second.

Compared with `CCCCOc1cccc(S(=O)(=O)c2ccc3c(c2)OC2CNCCC32)c1` (stereo not shown) [Example 554], `O=S(=O)(Nc1ccc(F)cc1)c1ccc2c(c1)C1CCNCC1O2` (stereo not shown) [Example 847] is higher in Ki: less than 0.5 µM for the first, greater than 1 µM for the second. The first binds more tightly here.

Compared with `O=S(=O)(Oc1ccc2c(c1)OC1CNCCC21)c1cccc(Cl)c1` (stereo not shown) [Example 653], `O=S(=O)(Oc1ccc2c(c1)OC1CNCCC21)c1ccccn1` (stereo not shown) [Example 689] is higher in Ki: less than 0.5 µM for the first, greater than 1 µM for the second. The first binds more tightly here.

First: O=S(=O)(c1cncc(F)c1)c1ccc2c3c(oc2c1)CNCC3 [Example 441]
Second: CC(C)N1CCC2(C)c3cc(OS(=O)(=O)Cc4ccccc4)ccc3OC2C1 (stereo not shown) [Example 804]
The Ki of the first is lower: less than 0.5 µM for the first, greater than 1 µM for the second. The first binds more tightly here.

First: CC12CCNCC1Oc1ccc(OS(=O)(=O)Cc3ccccc3Cl)cc12 (stereo not shown) [Example 784]
Second: CC(C)S(=O)(=O)c1ccc2oc3c(c2c1)CCNC3 [Example 281]
The Ki of the first is lower: less than 0.5 µM for the first, greater than 1 µM for the second.

First: Cc1ccc(S(=O)(=O)Oc2ccc3c(c2)C2CCNCC2O3)cc1Cl (stereo not shown) [Example 719]
Second: COc1cccc(NS(=O)(=O)c2ccc3c(c2)C2CCNCC2O3)c1 (stereo not shown) [Example 850]
The Ki of the first is lower: less than 0.5 µM for the first, greater than 1 µM for the second.

`CC1(C)CNCc2oc3cc(S(=O)(=O)c4cc(F)cc(F)c4)ccc3c21` [Example 287] and `Cc1ncccc1S(=O)(=O)c1ccc2c3c(oc2c1)C(C)(C)NCC3` [Example 375] cannot be ordered by Ki: less than 0.5 µM for the first, less than 0.5 µM for the second.

Compared with `CC(C)Oc1cccc(S(=O)(=O)c2ccc3c4c(oc3c2)C2(CCOC2)NCC4)c1` (single isomer, unassigned) [Example 31, 7-{[3-(propan-2-yloxy)phenyl]sulfonyl}-3,4,4′,5′-tetrahydro-2H-spiro[1-benzofuro[2,3-c]pyridine-1,3′-furan]], `O=S(=O)(c1cccnc1)c1ccc2c(c1)OC1CNCCC21` (stereo not shown) [Example 393] is higher in Ki: less than 0.5 µM for the first, greater than 1 µM for the second. The first binds more tightly here.

`O=S(=O)(c1cccc(OC2CCOCC2)c1)c1ccc2c(c1)OC1CNCCC21` (stereo not shown) [Example 571] and `CC(=O)N(C)CC1NCCc2c1oc1ccc(S(=O)(=O)c3cccc(F)c3)cc21` (stereo not shown) [Example 533, N-({6-[(3-Fluorophenyl)sulfonyl]-1,2,3,4-tetrahydro[1]benzofuro[2,3-c]pyridin-1-yl}methyl)-N-methylacetamide] cannot be ordered by Ki: less than 0.5 µM for the first, less than 0.5 µM for the second.

`COc1ccccc1S(=O)(=O)c1ccc2c(c1)OC1CNCCC21C` (racemic) [Example 3, 7-[(2-methoxyphenyl)sulfonyl]-4a-methyl-1,2,3,4,4a,9a-hexahydro[1]benzofuro[2,3-c]pyridine] and `O=S(=O)(c1ccc2c3c(oc2c1)CNCC3)c1ccccc1-c1ccccc1` [Example 232] cannot be ordered by Ki: less than 0.5 µM for the first, less than 0.5 µM for the second.

`COc1ccc(OC)c(S(=O)(=O)Oc2ccc3c(c2)OC2CNCCC32)c1` (stereo not shown) [Example 670] and `O=S(=O)(c1cccc(F)c1)c1ccc2c3c(oc2c1)C(C(F)(F)F)NCC3` (stereo not shown) [Example 510] cannot be ordered by Ki: less than 0.5 µM for the first, less than 0.5 µM for the second.

First: O=S(=O)(c1ccc(Cl)cc1)c1ccc2c3c(oc2c1)CNCC3 [Example 203]
Second: O=S(=O)(c1cccc(F)c1)c1ccc2oc3c(c2c1)CCNC3C(F)(F)F (stereo not shown) [Example 511]
The Ki of the first is lower: less than 0.5 µM for the first, greater than 1 µM for the second.

Same assay, conditions: membranes of CHO-K1 cells with recombinant human 5-HT6, 4 nM [3H]LSD; specific data; read-out: h5-HT6 (Ki)

First: Cc1ccc(C)c(S(=O)(=O)Nc2ccc3c(c2)C2CCNCC2O3)c1 (stereo not shown) [Example 820, N-(1,2,3,4,4a,9a-hexahydro[1]benzofuro[2,3-c]pyridin-6-yl)-2,5-dimethylbenzenesulfonamide]
Second: CC(C)N1CCC2c3ccc(S(=O)(=O)c4ccccc4)cc3OC2C1 (stereo not shown) [Example 608, 7-(phenylsulfonyl)-2-(propan-2-yl)-1,2,3,4,4a,9a-hexahydro[1]benzofuro[2,3-c]pyridine]
The Ki of the first is 9.6-fold higher: 0.472 µM for the first, 0.0494 µM for the second.
